From ChEMBL document CHEMBL1122911, “Synthesis and antitumor activity of tropolone derivatives. 2” (1985)
Values after ≈ are worked out from the molar mass of the structure shown. Values joined by “and” are separate entries in the source; they are usually repeats but may differ in a detail not shown here. Equal entries are not always repeated. Active and inactive are the calls of the source. The calls are words filed in the database; no cut-off is given here.

Assays:
Mus musculus [1] = assay: Compound was tested for inhibitory activity against P388 leukemia in mice at 400 mg/kg; assay type: functional, organism-based; parameters: dose 400 mg/kg
[2] = In vitro inhibitory activity against growth of KB cells; assay type: functional, Homo sapiens; conditions: for IC50: Homo sapiens, KB, read-out: ID50 (the source's name)
Mus musculus [3] = assay: In vivo antitumor activity against leukemia P388 in mice after intraperitoneal administration at a dose of 12.5 mg/kg once a day for 1 and 5 days; assay type: functional
Mus musculus [4] = assay: In vivo antitumor activity against leukemia P388 in mice after intraperitoneal administration at a dose of 25 mg/kg once a day for 1 and 5 days; assay type: functional
Mus musculus [5] = assay: In vivo antitumor activity against leukemia P388 in mice after intraperitoneal administration at a dose of 50 mg/kg once a day for 1 and 5 days; assay type: functional
Mus musculus [6] = assay: In vivo antitumor activity against leukemia P388 in mice after intraperitoneal administration at a dose of 100 mg/kg once a day for 1 and 5 days; assay type: functional
Mus musculus [7] = assay: In vivo antitumor activity against leukemia P388 in mice after intraperitoneal administration at a dose of 200 mg/kg once a day for 1 and 5 days; assay type: functional
Mus musculus [8] = assay: In vivo antitumor activity against leukemia P388 in mice after intraperitoneal administration of the compound at a dose of 200 mg/kg once a day for 1 and 5 days; assay type: functional
Mus musculus [9] = assay: In vivo antitumor activity against leukemia P388 in mice after intraperitoneal administration at a dose of 400 mg/kg once a day for 1 and 5 days; assay type: functional
Mus musculus [10] = assay: In vivo antitumor activity against leukemia P388 in mice after intraperitoneal administration once a day for 1 and 5 days; assay type: functional

| SMILES | Activity (Mus musculus [1]) | ID50 [2] | IC50 [2] | other results |
| --- | --- | --- | --- | --- |
| Oc1ncc(C2OCCc3ccccc32)c(O)n1 (stereo unspecified) | inactive | 410 µM | > 100 µg/mL | – |
| CC(=O)C1=C(O)CN(C2OCCc3ccccc32)C1=O (stereo unspecified) | inactive | 366 µM | > 100 µg/mL | – |
| CCOC(c1ccc(OC)cc1)c1ccc(C(C)C)cc(=O)c1O (stereo unspecified) | – | – | 0.5 µg/mL (≈ 1.52 µM) | T/C (Mus musculus [3]): 96%; T/C (Mus musculus [4]): 109%; T/C (Mus musculus [5]): 119% |
| COc1ccc(C(c2oc(CO)cc(=O)c2O)c2oc(CO)cc(=O)c2O)cc1 | – | 249 µM | 100 µg/mL (≈ 249 µM) | T/C (Mus musculus [6]): 98%; T/C (Mus musculus [7]): 102%; T/C (Mus musculus [5]): 102% |
| Clc1ccc2oc(SCC3OCCc4ccccc43)nc2c1 (stereo unspecified) | inactive | 18 µM | 6.1 µg/mL (≈ 18.4 µM) | – |
| COc1ccc(C(c2ccc(C(C)C)cc(=O)c2O)n2c(=S)oc3ccccc32)cc1 (stereo unspecified) | – | 8.5 µM | 3.7 µg/mL (≈ 8.53 µM) | T/C (Mus musculus [8]): 105%; T/C (Mus musculus [6]): 113%; T/C (Mus musculus [9]): 133% |
| O=c1oc2ccccc2c(O)c1C1OCCc2ccccc21 (stereo unspecified) | inactive | 340 µM | 100 µg/mL (≈ 340 µM) | – |
| Oc1ccc(C2OCCc3ccccc32)cc1 (stereo unspecified) | inactive | 119 µM | 27 µg/mL (≈ 119 µM) | – |
| COc1ccc(C(NC(=O)c2ccccc2)c2ccc(C(C)C)cc(=O)c2O)cc1 (stereo unspecified) | – | 4.2 µM | 1.7 µg/mL (≈ 4.21 µM) | T/C (Mus musculus [6]): 104%; T/C (Mus musculus [7]): 110%; T/C (Mus musculus [9]): 131% |
| COC(=O)c1ccc(O)c(C2OCCc3ccccc32)c1 (stereo unspecified) | inactive | 352 µM | > 100 µg/mL | – |
| S=c1oc2ccc(Cl)cc2n1CC1OCCc2ccccc21 (stereo unspecified) | inactive | 28 µM | 8.9 µg/mL (≈ 26.8 µM) | – |
| O=C(c1ccccc1)C(c1ccccc1)C1OCCc2ccccc21 (stereo unspecified) | inactive | 305 µM | > 100 µg/mL | – |
| O=C1c2ccccc2CCC1C1OCCc2ccccc21 (stereo unspecified) | inactive | 151 µM | 42 µg/mL (≈ 151 µM) | – |
| S=c1oc2ccc(Cl)cc2n1C1OCCc2ccccc21 (stereo unspecified) | inactive | 268 µM | 85 µg/mL (≈ 267 µM) | – |
| CC1(C)CC(=O)C(C2OCCc3ccccc32)=C(O)C1 (stereo unspecified) | inactive | 368 µM | > 100 µg/mL | – |
| Cc1cc(O)c(C(C)C)cc1C(c1ccccc1)c1cc(C(C)C)c(O)cc1C | – | 34 µM | 13 µg/mL (≈ 33.5 µM) | T/C (Mus musculus [10]): 102% and 100% and 87% |
| Cc1cc(O)c(C(C)C)cc1C1OCCc2ccccc21 (stereo unspecified) | inactive | 57 µM | 16 µg/mL (≈ 56.7 µM) | – |
| Oc1ccccc1C1OCCc2ccccc21 (stereo unspecified) | inactive | 90 µM | 20.5 µg/mL (≈ 90.6 µM) | – |
| CCOC(c1ccccc1)c1ccc(C(C)C)cc(=O)c1O (stereo unspecified) | – | – | – | T/C (Mus musculus [10]): 96%; T/C (Mus musculus [4]): 97% |
| CC(C)c1ccc(C(Sc2ccccc2)c2ccccc2)c(O)c(=O)c1 (stereo unspecified) | – | 1.4 µM | 0.5 µg/mL (≈ 1.38 µM) | T/C (Mus musculus [6]): 108%; T/C (Mus musculus [7]): 135%; T/C (Mus musculus [9]): 113% |
| COc1ccc(C(NC(C)=O)c2ccc(C(C)C)cc(=O)c2O)cc1 (stereo unspecified) | – | 18 µM | 6 µg/mL (≈ 17.6 µM) | T/C (Mus musculus [6]): 92%; T/C (Mus musculus [7]): 92%; T/C (Mus musculus [9]): 108% |
| O=C1c2ccccc2CC1C1OCCc2ccccc21 (stereo unspecified) | inactive | 144 µM | 38 µg/mL (≈ 144 µM) | – |
